US20240254118A1, “PRMT5 INHIBITORS AND USES THEREOF” (Gilead Sciences, Inc., priority 2022, published 2024)

What was measured:
[1] = tested on: SDMA signal (PRMT5 inhibition) in HCT116 MTAP-deleted cells; assay: Symmetric di-methyl arginine image-based high content screen assay (SDMA assay), HCT116 MTAP-deleted; assay type: cell-based; conditions: SDMA assay; for EC50: Homo sapiens, HCT-116, 72 h, 3 days of treatment, cell line not given, taken as HCT116 MTAP-deleted, read-out: EC50 (SDMA assay); for EC50 selectivity (SDMA assay): taken as HCT116 WT versus MTAP-deleted
Summary of the method: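 HCT116 MTAP-deleted cells treated with compound until Day 3, then formalin-fixed, permeabilized and immunostained for SDMA, with DAPI nuclear counterstain. Imaged by high-content microscopy; SDMA read-out is mean Alexa 488 intensity per DAPI-defined cell, reflecting PRMT5 inhibition.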

[2] = tested on: HCT116 MTAP-deleted cells; assay: Cell viability assay (CellTiter-Glo, 7 days), HCT116 MTAP-deleted; conditions: Homo sapiens, HCT-116, 168 h

Row | EC50 [1] [nM] | EC50 selectivity (SDMA assay) [1] | SMILES | CC50 [2] [nM]
1 | < 1 | 80 | CN(C(=O)C1CC1)N(Cc1ccc2c(c1)OC(F)(F)O2)C(=O)c1ccc2nc(N)c3cnn(C)c3c2c1 [Example 283, 4-amino-N′-(cyclopropanecarbonyl)-N-((2,2-difluorobenzo[d][1,3]dioxol-5-yl)methyl)-N′,1-dimethyl-1H-pyrazolo[4,3-c]quinoline-8-carbohydrazide] | < 100
2 | < 1 | 16 | CCN(C(=O)C1CC1)N(Cc1ccc(C(F)(F)F)cn1)C(=O)c1cc2c(cc1F)nc(N)c1cnn(C)c12 [Example 286, 4-amino-N′-(cyclopropanecarbonyl)-N′-ethyl-7-fluoro-1-methyl-N-((5-(trifluoromethyl)pyridin-2-yl)methyl)-1H-pyrazolo[4,3-c]quinoline-8-carbohydrazide] | < 100
3 | 1 to 5 | 174 | CCC(=O)N(CC)N(Cc1ccc(C(F)(F)F)cn1)C(=O)c1ccc2nc(N)c3cnn(C)c3c2c1 [Example 287, 4-amino-N′-ethyl-1-methyl-N′-propionyl-N-((5-(trifluoromethyl)pyridin-2-yl)methyl)-1H-pyrazolo[4,3-c]quinoline-8-carbohydrazide] | < 100
4 | < 1 | 267 | CCN(C(=O)C1CC1)N(Cc1ccc(C(F)(F)F)cn1)C(=O)c1ccc2nc(N)c3cnn(C)c3c2c1 [Example 288, 4-amino-N′-(cyclopropanecarbonyl)-N′-ethyl-1-methyl-N-((5-(trifluoromethyl)pyridin-2-yl)methyl)-1H-pyrazolo[4,3-c]quinoline-8-carbohydrazide] | < 100
5 | 1 to 5 | 155 | CC(=O)N(C)N(Cc1cccc2c1nnn2C)C(=O)c1ccc2nc(N)c3cnn(C)c3c2c1 [Example 289, N′-acetyl-4-amino-N′,1-dimethyl-N-((1-methyl-1H-benzo[d][1,2,3]triazol-4-yl)methyl)-1H-pyrazolo[4,3-c]quinoline-8-carbohydrazide] | 100 to 1000
6 | 1 to 5 | 80 | Cn1ncc2c(N)nc3ccc(C(=O)N(Cc4ccc(C(F)(F)F)cn4)N4CCOCC4(C)C)cc3c21 [Example 292, 4-amino-N-(3,3-dimethylmorpholino)-1-methyl-N-((5-(trifluoromethyl)pyridin-2-yl)methyl)-1H-pyrazolo[4,3-c]quinoline-8-carboxamide] | 100 to 1000
7 | < 1 | 9 | C[C@@H]1CN(N(Cc2ccc(C(F)(F)F)cn2)C(=O)c2cc3c(cc2F)nc(N)c2cnn(C)c23)C[C@H](C)O1 [Example 293, 4-amino-N-((2S,6R)-2,6-dimethylmorpholino)-7-fluoro-1-methyl-N-((5-(trifluoromethyl)pyridin-2-yl)methyl)-1H-pyrazolo[4,3-c]quinoline-8-carboxamide] | < 100
8 | < 1 | 97 | Cn1ncc2c(N)nc3cc(F)c(C(=O)N(Cc4ccc(C(F)(F)F)cn4)NC(=O)C4(F)CC4)cc3c21 [Example 294, 4-amino-7-fluoro-N′-(1-fluorocyclopropane-1-carbonyl)-1-methyl-N-((5-(trifluoromethyl)pyridin-2-yl)methyl)-1H-pyrazolo[4,3-c]quinoline-8-carbohydrazide] | < 100
9 | < 1 | 18 | Cn1ncc2c(N)nc3ccc(C(=O)N(Cc4ccc(C(F)(F)F)cn4)n4ccc5cccnc54)cc3c21 [Example 295, 4-amino-1-methyl-N-(1H-pyrrolo[2,3-b]pyridin-1-yl)-N-((5-(trifluoromethyl)pyridin-2-yl)methyl)-1H-pyrazolo[4,3-c]quinoline-8-carboxamide] | < 100
